Results taken from paper PMC8885657, “HPV infection alters vaginal microbiome through down-regulating host mucosal innate peptides used by Lactobacilli as amino acid sources” (Nature Communications, 2022).
Several values for one entry are separate records, joined by “and”; a condition that tells them apart may be missing. Identical values can stand only once. Where no end group is shown, it is not given here.

Tests used:
[1] = test system: Lactobacillus crispatus DSM 20356; assay: Antimicrobial assay (surviving colonies, CFU count); assay type: cell-based; conditions: for antimicrobial/protective activity in reducing environment: peptides pre-incubated with 2 mM DTT 30 min 37 °C, 6 h with bacteria, n = 6; for Bacterial survival (surviving colonies): Fig 5E, L. crispatus, individual replicates; for Bacterial survival (surviving colonies) / positive effect on survival in acidic conditions: pH 5.8; for positive effect on survival in potassium phosphate buffer: KPB pH 7.4, 10 mM; for positive effect on survival in potassium phosphate buffer / positive effect on survival in acidic conditions / effect on bacterial growth/survival (percentage of surviving colonies): 6 h; for positive effect on survival in potassium phosphate buffer / positive effect on survival in acidic conditions: n = 4; for effect on bacterial growth/survival (percentage of surviving colonies): peptide 1–10 µg/ml, 5 × 10^4 CFU/ml, 10 mM sodium phosphate buffer, 37 °C, plated on Columbia Blood agar, n = 3; for incubation time at which a significant increased percentage of surviving colonies was detected: starvation assay (no nutrients), 45 min to 9 h, n = 8
Experimental: (§1) Bacterial strains Lactobacillus crispatus DSM 20356, Lactobacillus iners CIP 105923 and Garnerella vaginalis CCUG 43336 were kindly provided by the Department of Clinical Microbiology at University Hospital Center of Liege. Lactobacillus jensenii LMG 6414 was obtained from BCCM/LMG Bacteria Collection (University of Gent, Belgium). Log-phase bacteria were grown on Columbia agar with 5% sheep blood (Becton Dickinson, Franklin Lakes, NJ, USA) at 37 °C in a humidified CO2 atmosphere (Lactobacilli) or in anaerobic jars (G. vaginalis). To analyze the antimicrobial effect of innate peptides expressed by vaginal/cervical mucosa, 5 × 10^4 colony-forming unit (CFU)/ml were mixed with different peptides (concentration range: 1–10 µg/ml) in 10 mM sodium phosphate buffer (SPB) (final volume 100 µl) and incubated for 45 min to 9 h at 37 °C. Where indicated, the peptides were incubated with 2 mM dithiothreitol (DTT) (Invitrogen, Carlsbad, CA, USA) for 30 min at 37 °C before adding the bacteria. In indicated experiments, incubation was carried out in potassium phosphate buffer (KPB) (pH: 7.4, 10 mM). The following peptides were tested: HβD1 (PeptaNova, Sandhausen, Germany), HβD2 (PeptaNova), HβD3 (PeptaNova), HβD4 (PeptaNova), HD-5 (PeptaNova), HD-6 (PeptaNova), elafin (PeptaNova), S100A7 (Abnova, Taipei City, Taiwan) and SLPI (R&D Systems, Minneapolis, MI, USA). Bacterial suspensions were then plated on Columbia Blood agar plates for 24–48 h to determine CFU. High-resolution images for each condition were taken. Colony detection and counts were finally performed using ImageJ software (NIH, Bethesda, MD, USA) and verified by manual counting.

[2] = test system: Lactobacillus jensenii LMG 6414; assay: as above; assay type: cell-based; conditions: for Bacterial survival (surviving colonies): Fig 5E, L. jensenii, individual replicates; for Bacterial survival (surviving colonies) / positive effect on survival in acidic conditions: pH 5.8; for positive effect on survival in potassium phosphate buffer: KPB pH 7.4, 10 mM; for positive effect on survival in potassium phosphate buffer / positive effect on survival in acidic conditions / effect on bacterial growth/survival (percentage of surviving colonies): 6 h; for positive effect on survival in potassium phosphate buffer / positive effect on survival in acidic conditions / antimicrobial/protective activity in reducing environment: n = 4; for effect on bacterial growth/survival (percentage of surviving colonies): peptide 1–10 µg/ml, 5 × 10^4 CFU/ml, 10 mM sodium phosphate buffer, 37 °C, plated on Columbia Blood agar, n = 3; for antimicrobial/protective activity in reducing environment: peptides pre-incubated with 2 mM DTT 30 min 37 °C, 6 h with bacteria; for incubation time at which a significant increased percentage of surviving colonies was detected: starvation assay (no nutrients), 45 min to 9 h, n = 8
Experimental: as §1

[3] = test system: Lactobacillus iners CIP 105923; assay: as above; assay type: cell-based; conditions: for Bacterial survival (surviving colonies): Fig 5E, L. iners, individual replicates; for Bacterial survival (surviving colonies) / positive effect on survival in acidic conditions: pH 5.8; for positive effect on survival in potassium phosphate buffer: KPB pH 7.4, 10 mM; for positive effect on survival in potassium phosphate buffer / positive effect on survival in acidic conditions / effect on bacterial growth/survival (percentage of surviving colonies): 6 h; for positive effect on survival in potassium phosphate buffer / positive effect on survival in acidic conditions: n = 4; for effect on bacterial growth/survival (percentage of surviving colonies): peptide 1–10 µg/ml, 5 × 10^4 CFU/ml, 10 mM sodium phosphate buffer, 37 °C, plated on Columbia Blood agar, n = 3; for antimicrobial/protective activity in reducing environment: peptides pre-incubated with 2 mM DTT 30 min 37 °C, 6 h with bacteria, n = 5; for incubation time at which a significant increased percentage of surviving colonies was detected: starvation assay (no nutrients), n = 6
Experimental: as §1

L. crispatus [4] = assay: ATP measurement in bacteria (BacTiter-Glo); assay type: cell-based, Lactobacillus crispatus; conditions: 6 × 10^7 CFU/ml, peptide 5 µg, 10 mM SPB, 6 h, 37 °C; luminescence; n = 5; statistical significance not reached in all conditions
Experimental: (§2) ATP level in bacteria was determined using the BacTiter-Glo Microbial Cell Viability Assay (Promega) according to manufacturer’s recommendations. For each bacterial species, 6 ×10^7 CFU/ml were mixed with elafin or S100A7 (5 µg) in 10 mM SPB and incubated 6 h at 37 °C. One hundred µl of bacterial-peptide solution were then mixed with an equal volume of BacTiter-Glo reagent and incubated for 5 min at room temperature. Luminescence was measured using a Centro LB960 microplate luminometer (Berthold Technologies, Bad Wildbad, Germany).

L. jensenii [5] = assay: ATP measurement in bacteria (BacTiter-Glo); assay type: cell-based, Lactobacillus jensenii; conditions: 6 × 10^7 CFU/ml, peptide 5 µg, 10 mM SPB, 6 h, 37 °C; luminescence; n = 5; statistical significance not reached in all conditions
Experimental: as §2

L. crispatus [6] = assay: Internalization of fluorescent-labeled peptides in bacteria (flow cytometry); assay type: cell-based, Lactobacillus crispatus; conditions: Atto 488-labeled peptide 5 µg/ml, 5 × 10^4 CFU/ml, 10 mM SPB, 1 h30, 37 °C, trypan blue, n = 3
Experimental: (§3) To determine the incorporation of selected peptides (or their hydrolyzed products) within the cytoplasm of several bacterial species, free amine groups (lysine residues and N-terminus) were first conjugated with Atto 488 dye according to manufacturer’s recommendations (Atto 488 protein labeling kit, Sigma Aldrich). A total 5 × 10^4 colony-forming unit (CFU)/ml were then mixed with fluorescent labeled peptides (5 µg/ml) in 10 mM sodium phosphate buffer (final volume 100 µl) and incubated for 1 h30 at 37 °C before being analyzed by flow cytometry. Where indicated, trypan blue was added before the analysis in order to exclusively consider cytoplasmic fluorescence.

L. jensenii [7] = assay: as above; assay type: cell-based, Lactobacillus jensenii; conditions: Atto 488-labeled peptide 5 µg/ml, 5 × 10^4 CFU/ml, 10 mM SPB, 1 h30, 37 °C, trypan blue, n = 3
Experimental: as §3

L. iners [8] = assay: as above; assay type: cell-based, Lactobacillus iners; conditions: Atto 488-labeled peptide 5 µg/ml, 5 × 10^4 CFU/ml, 10 mM SPB, 1 h30, 37 °C, trypan blue, n = 3
Experimental: as §3

L. iners [9] = assay: ATP measurement in bacteria (BacTiter-Glo); assay type: cell-based, Lactobacillus iners; conditions: 6 × 10^7 CFU/ml, peptide 5 µg, 10 mM SPB, 6 h, 37 °C; luminescence; n = 5; statistical significance not reached in all conditions
Experimental: as §2

Molecule | antimicrobial/protective activity in reducing environment [1] | Bacterial survival (surviving colonies) [2] | positive effect on survival in potassium phosphate buffer [2] | positive effect on survival in acidic conditions [2] | effect on bacterial growth/survival (percentage of surviving colonies) [2] | antimicrobial/protective activity in reducing environment [2] | incubation time at which a significant increased percentage of surviving colonies was detected [2] | Bacterial survival (surviving colonies) [1] | positive effect on survival in potassium phosphate buffer [1] | positive effect on survival in acidic conditions [1] | effect on bacterial growth/survival (percentage of surviving colonies) [1] | incubation time at which a significant increased percentage of surviving colonies was detected [1] | Bacterial survival (surviving colonies) [3] | positive effect on survival in potassium phosphate buffer [3] | positive effect on survival in acidic conditions [3] | effect on bacterial growth/survival (percentage of surviving colonies) [3] | antimicrobial/protective activity in reducing environment [3] | incubation time at which a significant increased percentage of surviving colonies was detected [3] | ATP production (L. crispatus [4]) | ATP production (L. jensenii [5]) | further results
HβD3: epithelial member of the defensin family, host defense peptide (PeptaNova) (GIINTLQKYYCRVRGGRCAVLSCLPKEEQIGKCSTRGRKCCRRKK; not fully specified; ends and bridges not checked; UniProt P81534 23-67, looked up) | slight increase in the antibacterial activity |  |  |  |  |  |  |  |  |  |  |  |  |  |  |  |  |  |  |  | 
elafin: "defensin-like" innate peptide constitutively secreted by cervical/vaginal mucosa (PeptaNova) (AQEPVKGPVSTKPGSCPIILIRCAMLNPPNRCLKDTDCPGIKKCCEGSCGMACFVPQ; not fully specified; ends and bridges not checked; UniProt P19957 61-117, looked up) | significant protective effect | 223.81 and 226.19 and 261.90 and 150.02 | did not modify the positive effect | did not modify the positive effect | do not display any antimicrobial activities | significant protective effect | only detected after 3 or 6 h | 124.66 and 146.1 and 157.25 and 154.15 | did not modify the positive effect | did not modify the positive effect | do not display any antimicrobial activities | only detected after 3 or 6 h | 148.35 and 185.56 and 157.03 and 142.84 | did not modify the positive effect | did not modify the positive effect | do not display any antimicrobial activities | significant protective effect | only detected after 3 or 6 h | increase of ATP production | increase of ATP production | internalization of fluorescent-labeled peptide (or hydrolyzed products) within the cytoplasm of bacteria (L. crispatus [6]): internalization; internalization of fluorescent-labeled peptide (or hydrolyzed products) within the cytoplasm of bacteria (L. jensenii [7]): internalization; internalization of fluorescent-labeled peptide (or hydrolyzed products) within the cytoplasm of bacteria (L. iners [8]): internalization; ATP production (L. iners [9]): increase of ATP production
S100A7: "defensin-like" innate peptide constitutively secreted by cervical/vaginal mucosa (Abnova) (protein, UniProt P31151 2-101, looked up) Protein S100-A7: SNTQAERSIIGMIDMFHKYTRRDDKIEKPSLLTMMKENFPNFLSACDKKGTNYLADVFEKKDKNEDKKIDFSEFLSLLGDIATDYHKQSHGAAPCSGGSQ | significant protective effect | 419.05 and 164.29 and 304.76 and 269.05 | did not modify the positive effect | did not modify the positive effect | do not display any antimicrobial activities | significant protective effect | only detected after 3 or 6 h | 127.74 and 112.92 and 139.54 and 168.69 | did not modify the positive effect | did not modify the positive effect | do not display any antimicrobial activities | only detected after 3 or 6 h | 138.53 and 246.67 and 123.50 and 159.47 | did not modify the positive effect | did not modify the positive effect | do not display any antimicrobial activities | significant protective effect | only detected after 3 or 6 h | increase of ATP production | increase of ATP production | internalization of fluorescent-labeled peptide (or hydrolyzed products) within the cytoplasm of bacteria (L. crispatus [6]): internalization; internalization of fluorescent-labeled peptide (or hydrolyzed products) within the cytoplasm of bacteria (L. jensenii [7]): internalization; internalization of fluorescent-labeled peptide (or hydrolyzed products) within the cytoplasm of bacteria (L. iners [8]): internalization; ATP production (L. iners [9]): increase of ATP production
